Source: ChEMBL document CHEMBL3272282, “Adrenergic agents. 6. Synthesis and potential beta-adrenergic agonist activity of some meta-substituted p-hydroxyphenylethanolamines related to salbutamol” (J Med Chem, 1977)

What was measured:
[1] = Separation ratio of ED25 at beta-adrenoceptor in guinea pig atria to ED50 for beta-adrenoceptor in guinea pig trachea; design: species or system Cavia porcellus
Cavia porcellus [2] = organism: Cavia porcellus; experiment: Agonist activity at beta-adrenoceptor in guinea pig trachea assessed as relaxation of spontaneously contracted tracheal smooth muscle; format: tissue-based
Cavia porcellus [3] = organism: Cavia porcellus; experiment: Intrinsic activity at beta-adrenoceptor in guinea pig trachea assessed as relaxation of spontaneously contracted tracheal smooth muscle relative to papaverine; format: tissue-based
[4] = Agonist activity at beta-adrenoceptor in guinea pig atria assessed as cardiac stimulant activity by measuring change in rate of contraction of right atrial muscle at 92 uM; format: tissue-based, Cavia porcellus, Cardiac atrium
[5] = Agonist activity at beta-adrenoceptor in guinea pig atria assessed as cardiac stimulant activity by measuring change in rate of contraction of right atrial muscle; format: tissue-based, Cavia porcellus, Cardiac atrium
[6] = Intrinsic activity at beta-adrenoceptor in guinea pig atria assessed as cardiac stimulant activity by measuring change in rate of contraction of right atrial muscle relative to isoproterenol; format: ADME, tissue-based, Cavia porcellus, Cardiac atrium
Cavia porcellus [7] = organism: Cavia porcellus; experiment: Agonist activity at beta-adrenoceptor in guinea pig trachea assessed as relaxation of spontaneously contracted tracheal smooth muscle at 12 uM; format: tissue-based; design: scale not given: the % may be the effect or the level left
[8] = Agonist activity at beta-adrenoceptor in guinea pig atria assessed as cardiac stimulant activity by measuring change in rate of contraction of right atrial muscle at 14 uM; format: tissue-based, Cavia porcellus, Cardiac atrium
[9] = Agonist activity at beta-adrenoceptor in guinea pig atria assessed as cardiac stimulant activity by measuring change in rate of contraction of right atrial muscle at 0.12 mM; format: tissue-based, Cavia porcellus, Cardiac atrium; details: 120 µM
[10] = Agonist activity at beta-adrenoceptor in guinea pig atria assessed as cardiac stimulant activity by measuring change in rate of contraction of right atrial muscle at 56 uM; format: tissue-based, Cavia porcellus, Cardiac atrium
Cavia porcellus [11] = organism: Cavia porcellus; experiment: Agonist activity at beta-adrenoceptor in guinea pig trachea assessed as relaxation of spontaneously contracted tracheal smooth muscle at 11 uM; format: tissue-based; design: scale not given: the % may be the effect or the level left
[12] = Agonist activity at beta-adrenoceptor in guinea pig atria assessed as cardiac stimulant activity by measuring change in rate of contraction of right atrial muscle at 0.11 mM; format: tissue-based, Cavia porcellus, Cardiac atrium; details: 110 µM

| SMILES | Activity [4] [%] | ED25 [5] | Ratio [6] | Activity [8] [%] | Activity [9] [%] | Activity [10] [%] | Activity [12] [%] | Ratio [1] | ED50 (Cavia porcellus [2]) | Ratio (Cavia porcellus [3]) | Activity (Cavia porcellus [7]) [%] | Activity (Cavia porcellus [11]) [%] |
| --- | --- | --- | --- | --- | --- | --- | --- | --- | --- | --- | --- | --- |
| CC(C)(C)NCC(O)c1ccc(O)c(C(O)CNC(C)(C)C)c1 (configuration not stated) | 14 | 9.2 ×10⁻⁵ M | – | – | – | – | – | >6 | 1.5 ×10⁻⁵ M | 0.9 | – | – |
| CC(C)(C)NCC(O)c1ccc(O)c(CO)c1 (configuration not stated) [ALBUTEROL] | – | – | 0.7 | – | – | – | – | 28 | 1.1 ×10⁻⁸ M | 1 | – | – |
| CC(C)NCC(O)c1ccc(O)c(O)c1 (configuration not stated) [ISOPROTERENOL] | – | – | – | – | – | – | – | – | 7.1 nM | 1 | – | – |
| CC(C)(C)NCC(O)c1ccc(O)c(C(C)(C)O)c1 (configuration not stated) | – | – | – | – | – | 8 | – | – | 1.1 ×10⁻⁵ M | – | – | 30 |
| CC(C)(C)NCC(O)c1ccc(O)c(O)c1 (configuration not stated) [COLTEROL] | – | 7.1 nM | 1 | – | – | – | – | 5.5 | 1.3 nM | 1 | – | – |

The next lines start with results.

| Activity [4] [%] | ED25 [5] | Ratio [6] | Activity [8] [%] | Activity [9] [%] | Activity [10] [%] | Activity [12] [%] | SMILES | Ratio [1] | ED50 (Cavia porcellus [2]) | Ratio (Cavia porcellus [3]) | Activity (Cavia porcellus [7]) [%] | Activity (Cavia porcellus [11]) [%] |
| --- | --- | --- | --- | --- | --- | --- | --- | --- | --- | --- | --- | --- |
| – | 1.4 ×10⁻⁵ M | – | 0 | – | – | – | CC(C)(C)NCC(O)c1ccc(O)c(C(O)CS(C)(=O)=O)c1 (configuration not stated) | – | 1.2 ×10⁻⁵ M | – | 34 | – |
| – | 1.2 ×10⁻⁴ M | – | – | 23 | – | – | COCC(O)c1cc(C(O)CNC(C)(C)C)ccc1O (configuration not stated) | 236 | 5.3 ×10⁻⁷ M | 0.9 | – | – |
| – | 5200 nM | 0.3 | – | – | – | – | CC(O)c1cc(C(O)CNC(C)(C)C)ccc1O (configuration not stated) | 289 | 1.8 ×10⁻⁸ M | 1 | – | – |
| – | 3 ×10⁻⁵ M | 0.3 | – | – | – | – | CC(C)(C)NCC(O)c1ccc(O)c(C(O)CO)c1 (configuration not stated) | 303 | 9.9 ×10⁻⁸ M | 1 | – | – |
| – | – | – | – | – | – | 0 | COC(CO)c1cc(C(O)CNC(C)(C)C)ccc1O (configuration not stated) | >320 | 3.4 ×10⁻⁷ M | 0.7 | – | – |
